# Reference: patent publication US5242945A, “Tetronic and thiotetronic acid derivatives as phospholipase A2 inhibitors” (American Home Products Corporation, priority 1991, dated 1993)
# Tested on: lipoxygenase and/or cyclooxygenase pathways of arachidonic acid metabolism
# Assay: in vivo murine zymosan peritonitis assay
# Design: species or system mouse (CD-1)
# Conditions: 100 mg/kg p.o.; negative values denote potentiation
# Experimental: The compounds of the invention are evaluated for their ability to inhibit the lipoxygenase and/or cyclooxygenase pathways of arachidonic acid metabolism in the in vivo murine zymosan peritonitis assay.
# Male CD-1 mice (8 weeks old) are placed in plastic boxes in groups of six. Animals are injected with 1 mL i.p. of either 1% zymosan in pyrogen free 0.9% saline or saline (unstimulated control). Compounds are dosed orally 1 hour prior to zymosan injection. Twenty minutes after zymosan injection, the mice are asphyxiated by CO2 inhalation and the peritoneal cavity is lavaged with 2 mL ice cold Hanks Balanced Salt Solution (HBSS) without CaCl2, MgSO4. 7H2 O and MgCl2.6H2 O. Peritoneal lavage fluid from each mouse is removed by syringe and placed in 5 mL plastic test tubes put on ice and volume is noted. Preparation of samples for evaluation by ELISA is as follows: Samples are centrifuged at 800 xg for 15 minutes; 1 mL of the supernatant is added to 8 mL ice cold methanol and kept at -70° C. overnight to precipitate protein; and samples are then centrifuged at 800 xg for 15 minutes, followed by a drying procedure in a Savant speed vac concentrator. The samples are reconstituted with 1 mL ice cold ELISA buffer and stored at -70° C. until assayed. The assay for eicosanoids (LTC4 and 6-keto-PGF1α) is performed according to conventional ELISA procedures.
# Compounds to be tested orally are suspended in 0.5% Tween 80. Compounds to be tested intraperitoneally are suspended in 0.5% methylcellulose in 0.9% saline.
# The total metabolite level in lavage fluid/mouse is calculated and the significance is determined by a one-way analysis of variance with LSD comparisons to control (p≤0.05). Drug effects are expressed as a percent change from control values.
compound,measurement,value
"CCCCCCCCCC(=O)C1=C(O)COC1=O [Example 1, 4-Hydroxy-3-(1-oxodecyl)-2(5H)-furanone]",% Inhibition 6-keto-PGF,-58%
same,% Inhibition LTC4,-58%
